In brackets after ≈: the same amount, converted by molar mass. Activity calls are given as the source filed them. The calls are words filed in the database; no cut-off is given here.
Tests used:
P388 = assay: Cytotoxicity against mouse P388 cells; type: functional, cell-based
KB = assay: Cytotoxicity against human KB cells; type: functional, cell-based
Escherichia coli = assay: Antibacterial activity against Escherichia coli at 100 ug/disk; type: functional, organism-based
[1] = system: Human immunodeficiency virus 1; assay: Antiviral activity against HIV1 Haitian RF at 1 ug/mL; type: functional, organism-based
HT-29 = assay: Cytotoxicity against human HT-29 cells; type: functional, cell-based
A549 = assay: Cytotoxicity against human A549 cells; type: functional, cell-based
Staphylococcus aureus = assay: Antibacterial activity against Staphylococcus aureus at 100 ug/disk; type: functional; settings: read-out: IZ

COc1ccc(C/C(=N\O)C(=O)NCCc2cc(Br)c(OCCCN)c(Br)c2)cc1Br [APLYSAMINE 3]
IC50 (P388): 1 µg/mL (≈ 1.61 µM)
IC50 (KB): 5 µg/mL (≈ 8.04 µM)
Activity (Escherichia coli): inactive
Activity [1]: inactive
IC50 (HT-29): 2 µg/mL (≈ 3.21 µM)
IC50 (A549): 2 µg/mL (≈ 3.21 µM)
zone of inhibition at 100 µg/disc (Staphylococcus aureus): 10 mm

Br.COc1c(Br)cc(C/C(=N\O)C(=O)NCCc2cc(Br)c(OCCCN)c(Br)c2)cc1Br [APLYSAMINE 4]
IC50 (P388): 2.5 µg/mL
IC50 (KB): 5 µg/mL
Activity (Escherichia coli): inactive
Activity [1]: inactive
IC50 (HT-29): 2.5 µg/mL
IC50 (A549): 2.5 µg/mL
zone of inhibition at 100 µg/disc (Staphylococcus aureus): 10 mm

COc1ccc(C/C(=N\O)C(=O)NCCc2cc(Br)c(OCCCNC(=O)CCCCCCCCCCCC(C)C)c(Br)c2)cc1Br [APLYSAMINE 5]
IC50 (P388): 10 µg/mL (≈ 11.8 µM)
IC50 (KB): 2 µg/mL (≈ 2.36 µM)
Activity [1]: inactive
IC50 (HT-29): 2.5 µg/mL (≈ 2.95 µM)
IC50 (A549): 2.5 µg/mL (≈ 2.95 µM)

From ChEMBL document CHEMBL1147375, “Three New Bromotyrosine-Derived Metabolites of the Sponge Psammaplysilla purpurea” (J Nat Prod, 1993)
